# From US6855713B2, “Benzimidazole derivatives, a process for their manufacture and use as a medicine” (Boehringer Ingelheim Pharma KG, priority 2001, dated 2005)
# Biological target: T1, rh beta trypsin (Homo sapiens, UniProt P20231)
# T1 construct: purchased Promega
# Assay: Trypsin (tryptase) inhibition, cleavage of N-p-Gly-Pro-Lys-para-nitroaniline measured at 405 nm
# Assay type: biochemical
# Details: in vitro; tris-HCl buffer pH 7.4 with calcium and heparin; substrate 0.6 mM; 5 minutes, 37° C.; read-out: Trypsin-inhibiting property
# Experimental: The compounds of the invention are notable for their effective trypsin-inhibiting property. The said capacity to inhibit trypsin activity was determined in accordance with the following trial descriptions.
# The determinations are carried out in tris-HCl buffer (100 mM), that also contained calcium (5 mM) and heparin ([…]), at a pH of 7.4. As the standard, rh beta trypsin is used, this is commercially obtainable, for example, from Promega. A suitable substrate is N-p-Gly-Pro-Lys-para-nitroaniline in a concentration of 0.6 mM. The substrate is digested with trypsin, whereby p-nitro-aniline is obtained that can be measured at 405 nm. Normally, an incubation period of 5 minutes and an incubation temperature of 37° C. is chosen. For the enzyme activity, 0.91 U/ml are used. The determination is carriedout in an auto-analyser (Cobas Bio) from the firm Hoffmann LaRoche. The potential inhibitor substances are used in the screening procedure in concentrations of 10 μM, and the inhibition of the trypsin is given in percentages. At an inhibition in excess of 70%, the IC50 is determined (the concentration at which 50% of the enzyme activity is inhibited). After a 5-minute pre-incubation of the potential inhibiting substance, the substrate is added for the start of the reaction, whereby the production of p-nitro-aniline is taken, after 5 minutes, after testing the linearity, as a measure of the enzyme activity.
# T1 sequence (P20231 31-275): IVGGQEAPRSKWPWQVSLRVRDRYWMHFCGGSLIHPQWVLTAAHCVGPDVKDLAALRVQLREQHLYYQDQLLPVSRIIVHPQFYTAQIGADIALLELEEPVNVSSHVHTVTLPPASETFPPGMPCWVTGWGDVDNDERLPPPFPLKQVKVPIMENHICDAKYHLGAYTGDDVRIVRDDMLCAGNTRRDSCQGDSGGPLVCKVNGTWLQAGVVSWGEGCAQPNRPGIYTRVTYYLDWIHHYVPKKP
row,Structure (SMILES),IC50
1,"Cn1c(CCc2ccc(C(=N)N)cc2)nc2cc(C(=O)N3CCC(NC(=O)Nc4ccc(C(F)(F)F)cc4)CC3)ccc21 [Example 41, 4-[2-(1-Methyl-5-{4-[3-(4-trifluoromethyl-phenyl)-ureido]-piperidine-1-carbonyl}-1H-benzimidazole-2-yl)-ethyl]-benzamidine]",1 to 20 nM
2,Cn1c(CCc2ccc(C(=N)N)cc2)nc2cc(C(=O)N3CCC(NC(=O)c4cccc(Cl)c4Cl)CC3)ccc21 [Example 67],0.1 to 1 nM
3,"Cn1c(CCc2ccc(C(=N)N)cc2)nc2cc(C(=O)N3CCC(NC(=O)c4ccccc4O)CC3)ccc21 [Example 46, 2-[2-(4-Amidinophenyl)-ethyl]-1-methyl-benzimidazole-5-yl-carboxylic acid-[4-(2-hydroxy)-benzamidopiperidinyl)-amide]",1 to 20 nM
4,Cc1c(Cl)cccc1S(=O)(=O)N(C)C1CCN(C(=O)c2ccc3c(c2)nc(CCc2ccc(C(=N)N)cc2)n3C)CC1 [Example 170],1 to 20 nM
5,"Cn1c(CCc2ccc(C(=N)N)cc2)nc2cc(C(=O)N3CCC(NC(=O)Nc4ccccc4F)CC3)ccc21 [Example 27, 4-[2-(5-{4-[3-(2-Fluoro-phenyl)-ureido]-piperidine-1-carbonyl}-1-methyl-1H-benzimidazole-2-yl)-ethyl]-benzamidine]",0.1 to 1 nM
6,"Cc1cccc(NC(=O)NC2CCN(C(=O)c3ccc4c(c3)nc(CCc3ccc(C(=N)N)cc3)n4C)CC2)c1 [Example 25, 4-(2-{1-Methyl-5-[4-(3-m-tolyl-ureido)-piperidine-1-carbonyl]-1H-benzimidazole-2-yl}-ethyl)-benzamidine]",1 to 20 nM
7,"Cn1c(CCc2ccc(C(=N)N)cc2)nc2cc(C(=O)N3CCC(NC(=O)Nc4ccc(F)cc4)CC3)ccc21 [Example 42, 4-[2-(5-{4-[3-(4-Fluoro-phenyl)-ureido]-piperidine-1-carbonyl}-1-methyl-1H-benzimidazole-2-yl)-ethyl]-benzamidine]",1 to 20 nM
8,"Cn1c(CCc2ccc(C(=N)N)cc2)nc2cc(C(=O)N3CCC(NC(=O)Nc4cccc5ccccc45)CC3)ccc21 [Example 34, 4-(2-{1-Methyl-5-[4-(3-naphthalen-1-yl-ureido)-piperidine-1-carbonyl]-1H-benzimidazole-2-yl}-ethyl)-benzamidine]",1 to 20 nM
9,"Cn1c(CCc2ccc(C(=N)N)cc2)nc2cc(C(=O)N3CCC(NC(=O)Nc4ccc5ccccc5c4)CC3)ccc21 [Example 36, 4-(2-{1-Methyl-5-[4-(3-naphthalen-2-yl-ureido)-piperidine-1-carbonyl]-1H-benzimidazole-2-yl}-ethyl)-benzamidine]",1 to 20 nM
10,"Cn1c(CCc2ccc(C(=N)N)cc2)nc2cc(C(=O)N3CCC(NC(=O)Nc4ccc(Cl)cc4)CC3)ccc21 [Example 31, 4-[2-(5-{4-[3-(4-Chloro-phenyl)-ureido]-piperidine-1-carbonyl}-1-methyl-1H-benzimidazole-2-yl)-ethyl]-benzamidine]",1 to 20 nM
11,"Cn1c(CCc2ccc(C(=N)N)cc2)nc2cc(C(=O)N3CCC(NC(=O)Nc4ccc(F)cc4F)CC3)ccc21 [Example 33, 4-[2-(5-{4-[3-(2,4-Difluoro-phenyl)-ureido]-piperidine-1-carbonyl}-1-methyl-1H-benzimidazole-2-yl)-ethyl]-benzamidine]",1 to 20 nM
12,Cn1c(CCc2ccc(C(=N)N)cc2)nc2cc(C(=O)N3CCC(NC(=O)c4cc(Cl)ccc4Cl)CC3)ccc21 [Example 64],0.1 to 1 nM
13,"Cn1c(CCc2ccc(C(=N)N)cc2)nc2cc(C(=O)N3CCC(NC(=O)Nc4cccc(Br)c4)CC3)ccc21 [Example 43, 4-[2-(5-{4-[3-(3-Bromo-phenyl)-ureido]-piperidine-1-carbonyl}-1-methyl-1H-benzimidazole-2-yl)-ethyl]-benzamidine]",0.1 to 1 nM
14,"Cn1c(CCc2ccc(C(=N)N)cc2)nc2cc(C(=O)N3CCC(NC(=O)c4cccc(Cl)c4)CC3)ccc21 [Example 44, 2-[2-(4-Amidinophenyl)-ethyl]-1-methyl-benzimidazole-5-yl-carboxylic acid-[4-(3-chloro)-benzamidopiperidinyl)-amide]",0.1 to 1 nM
15,"CN(C(=O)c1ccccc1)C1CCN(C(=O)c2ccc3c(c2)nc(CCc2ccc(C(=N)N)cc2)n3C)CC1 [Example 53, 2-[2-(4-Amidinophenyl)-ethyl]-1-methyl-benzimidazole-5-yl-carbooxylic acid-[4-(N-methyl)benzamidopiperidinyl]-amide]",1 to 20 nM
16,"CC(=O)c1cccc(NC(=O)NC2CCN(C(=O)c3ccc4c(c3)nc(CCc3ccc(C(=N)N)cc3)n4C)CC2)c1 [Example 56, 2-[2-(4-Amidinophenyl)-ethyl]-1-methyl-benzimidazole-5-yl-carboxylic acid-{4-[3-(3-acetyl)-phenylureido]piperidinyl}-amide]",1 to 20 nM
17,Cn1c(CCc2ccc(C(=N)N)cc2)nc2cc(C(=O)N3CCC(Nc4cccc(Cl)c4Cl)CC3)ccc21 [Example 65],1 to 20 nM
